These compounds were tested against T1, hFXR (Homo sapiens, UniProt Q96RI1) (assay: In Vitro FXR Assay (TK): TK-ECRE-luc reporter in transfected CV-1 cells). Conditions: 18 hrs, luminescence, maximum efficacy of <25% of the Fexarmine control classified as '+'.
T1 construct: expressed in transfected cells; host or cells: CV-1 cells
T1 sequence (Q96RI1 1-486): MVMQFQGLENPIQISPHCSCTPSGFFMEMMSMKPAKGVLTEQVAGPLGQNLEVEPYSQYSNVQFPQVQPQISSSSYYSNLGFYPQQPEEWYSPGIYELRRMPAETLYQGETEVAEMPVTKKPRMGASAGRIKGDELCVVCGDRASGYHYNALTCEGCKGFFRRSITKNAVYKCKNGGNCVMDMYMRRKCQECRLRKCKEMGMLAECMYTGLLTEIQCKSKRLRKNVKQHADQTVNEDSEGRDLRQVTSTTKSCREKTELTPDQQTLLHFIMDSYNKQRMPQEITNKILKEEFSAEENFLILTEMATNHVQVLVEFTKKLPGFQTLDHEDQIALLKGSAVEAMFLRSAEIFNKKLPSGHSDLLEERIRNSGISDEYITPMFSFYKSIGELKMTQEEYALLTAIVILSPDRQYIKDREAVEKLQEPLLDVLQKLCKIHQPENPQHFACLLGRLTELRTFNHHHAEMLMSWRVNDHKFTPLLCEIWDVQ
T1 sequence (P19793 1-462 partner): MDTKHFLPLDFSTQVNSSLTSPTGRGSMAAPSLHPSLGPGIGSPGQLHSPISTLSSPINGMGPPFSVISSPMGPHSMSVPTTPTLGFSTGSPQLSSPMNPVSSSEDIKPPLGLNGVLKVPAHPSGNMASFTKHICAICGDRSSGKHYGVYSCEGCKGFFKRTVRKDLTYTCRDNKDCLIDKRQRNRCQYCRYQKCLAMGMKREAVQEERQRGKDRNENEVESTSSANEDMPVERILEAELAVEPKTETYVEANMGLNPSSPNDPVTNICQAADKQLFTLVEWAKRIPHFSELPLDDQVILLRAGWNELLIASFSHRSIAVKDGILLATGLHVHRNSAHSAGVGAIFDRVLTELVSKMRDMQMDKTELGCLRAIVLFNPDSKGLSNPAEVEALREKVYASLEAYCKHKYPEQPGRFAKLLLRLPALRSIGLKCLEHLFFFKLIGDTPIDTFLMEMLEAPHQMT
Type: cell-based
Method in brief: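 Reporter transactivation by hFXR was measured in CV-1 cells carrying hRXR and a TK-ECRE-luc construct, with compound treatment for 18 h before lysis and luminescence detection.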

EC50 | SMILES
≤ 250 nM | COc1ccc([C@H]2CC[C@H](CN(c3cccc(-c4cnn(C(C)C)c4)c3)C(=O)[C@H]3CC[C@H](OC(=O)NCCO)CC3)CC2)cc1C [Compound 6.09, trans-4-((3-(1-Isopropyl-1H-pyrazol-4-yl)phenyl)((trans-4-(4-methoxy-3-methylphenyl)cyclohexyl)methyl)carbamoyl)cyclohexyl (2-hydroxyethyl) carbamate]
≤ 250 nM | CN(C)c1ccc(C23CCC(CN(c4cccc(-c5cnn(C6CC6)c5)c4)C(=O)[C@H]4CC[C@H](OC(=O)NCCO)CC4)(CC2)CC3)cn1 [Compound 4.12, 4-((3-(1-Cyclopropyl-1H-pyrazol-4-yl)phenyl)((4-(6-(dimethylamino)pyridin-3-yl)bicyclo[2.2.2]octan-1-yl)methyl)carbamoyl)cyclohexyl (2-hydroxyethyl)trans-carbamate]
≤ 250 nM | COc1ccc([C@H]2CC[C@H](CN(c3cc(-c4coc(C5CC5)n4)ccn3)C(=O)[C@H]3CC[C@H](CO)CC3)CC2)nc1C [Compound 15.04, trans-N-(4-(2-Cyclopropyloxazol-4-yl)pyridin-2-yl)-4-(hydroxymethyl)-N-((trans-4-(5-methoxy-6-methylpyridin-2-yl)cyclohexyl)methyl) cyclohexanecarboxamide]
≤ 250 nM | CNC(=O)O[C@H]1CC[C@H](C(=O)N(C[C@H]2CC[C@H](c3ccc(OC)c(C)n3)CC2)c2cc(-c3coc(C(C)C)n3)ccn2)CC1 [Compound 5.43, trans-4-((4-(2-Isopropyloxazol-4-yl)pyridine-2-yl)((trans-4-(5-methoxy-6-methylpyridin-2-yl)cyclohexyl)methyl)carbamoyl)cyclohexyl methylcarbamate]
≤ 250 nM | COc1ccc([C@H]2CC[C@H](CN(c3cc(-c4cnc(C5CC5)s4)ccn3)C(=O)[C@H]3CC[C@H](C(=O)O)CC3)CC2)cc1C [Compound 17.09, trans-4-((4-(2-Cyclopropylthiazol-5-yl)pyridin-2-yl)((trans-4-(4-methoxy-3-methylphenyl)cyclohexyl)methyl)carbamoyl)cyclohexanecarboxylic acid]
≤ 250 nM | COc1ccc(C23CCC(CN(c4cccc(-c5cnn(C6CC6)c5)c4)C(=O)[C@H]4CC[C@H](NC(=O)OC(C)(C)C)CC4)(CC2)CC3)cc1C [Compound 18.15, tert-Butyl (4-((3-(1-cyclopropyl-1H-pyrazol-4-yl)phenyl)((4-(4-methoxy-3-methylphenyl)bicyclo[2.2.2]octan-1-yl)methyl)carbamoyl)cyclohexyl) trans-carbamate]
≤ 250 nM | CNC(=O)O[C@H]1CC[C@H](C(=O)N(C[C@H]2CC[C@H](c3ccc(OC)c(C)c3)CC2)c2cccc(-c3ccc(N(C)C)nc3)c2)CC1 [Compound 5.36, trans-4-((3-(6-(Dimethylamino)pyridine-3-yl)phenyl)((trans-4-(4-methoxy-3-methylphenyl)cyclohexyl)methyl)carbamoyl)cyclohexyl methylcarbamate]
≤ 250 nM | COc1ccc([C@H]2CC[C@H](CN(c3cc(-c4cnn(C(C)C)c4)ccn3)C(=O)[C@H]3CC[C@H](OC(=O)N4CCOCC4)CC3)CC2)nc1C [Compound 6.40, trans-4-((4-(1-Isopropyl-1H-pyrazol-4-yl)pyridin-2-yl)((trans-4-(5-methoxy-6-methylpyridin-2-yl)cyclohexyl)methyl)carbamoyl)cyclohexyl morpholine-4-carboxylate]
≤ 250 nM | COc1ccc([C@H]2CC[C@H](CN(c3cccc(-c4cnn(C5CC5)c4)c3)C(=O)[C@H]3CC[C@H](OC(=O)NC4CN(C)C4)CC3)CC2)cc1C [Compound 6.18, trans-4-((3-(1-Cyclopropyl-1H-pyrazol-4-yl)phenyl)((trans-4-(4-methoxy-3-methylphenyl)cyclohexyl)methyl)carbamoyl)cyclohexyl (1-methylazetidin-3-yl)carbamate]
≤ 250 nM | COc1ccc([C@H]2CC[C@H](CN(c3cc(-c4coc(C5CC5)n4)ccn3)C(=O)[C@H]3CC[C@H](OC(=O)NC4CC4)CC3)CC2)nc1C [Compound 6.57, trans-4-((4-(2-Cyclopropyloxazol-4-yl)pyridine-2-yl)((trans-4-(5-methoxy-6-methylpyridin-2-yl)cyclohexyl)methyl)carbamoyl)cyclohexyl cyclopropylcarbamate]
≤ 250 nM | COc1ccc([C@H]2CC[C@H](CN(c3cccc(-c4cnn(C5CC5)c4)c3)C(=O)[C@H]3CC[C@H](OC(=O)NCCO)CC3)CC2)cc1C#N [Compound 6.19, trans-4-(((trans-4-(3-Cyano-4-methoxyphenyl)cyclohexyl)methyl)(3-(1-cyclopropyl-1H-pyrazol-4-yl)phenyl)carbamoyl)cyclohexyl (2-hydroxyethyl)carbamate]
250 to 1000 nM | COc1ccc([C@H]2CC[C@H](CN(c3cc(-c4coc(C5CC5)n4)ccn3)C(=O)[C@H]3CC[C@H](OC(=O)N4CCNCC4)CC3)CC2)nc1C [Compound 6.78, trans-4-(4-(2-Cyclopropyloxazol-4-yl)pyridine-2-yl)((trans-4-(5-methoxy-6-methylpyridin-2-yl)cyclohexyl)methyl) carbamoyl)cyclohexylpiperazine-1-carboxylate]
250 to 1000 nM | COc1ccc([C@H]2CC[C@H](CN(c3cccc(-c4cnc(C5CC5)s4)c3)C(=O)[C@H]3CC[C@H](NC(=O)CC[S+](C)[O-])CC3)CC2)cc1C (stereo partly drawn) [Compound 31.13, trans-N-(3-(2-Cyclopropylthiazol-5-yl)phenyl)-N-((trans-4-(4-methoxy-3-methylphenyl)cyclohexyl)methyl)-4-(3-(methylsulfinyl)propanamido) cyclohexanecarboxamide]
≤ 250 nM | COc1ccc([C@H]2CC[C@H](CN(c3cc(-c4cnn(C(C)C)c4)ccn3)C(=O)[C@H]3CC[C@H](OC(=O)NCCO)CC3)CC2)cc1C#N [Compound 6.22, trans-4-(((trans-4-(3-Cyano-4-methoxyphenyl)cyclohexyl)methyl)(4-(1-isopropyl-1H-pyrazol-4-yl)pyridin-2-yl)carbamoyl)cyclohexyl (2-hydroxyethyl)carbamate]
≤ 250 nM | COc1ccc([C@H]2CC[C@H](CN(c3cccc(-c4cnn(C5CC5)c4)c3)C(=O)[C@H]3CC[C@H](OC(=O)NCCN)CC3)CC2)cc1C [Compound 4.16, trans-4-((3-(1-Cyclopropyl-1H-pyrazol-4-yl)phenyl)((trans-4-(4-methoxy-3-methylphenyl)cyclohexyl)methyl)carbamoyl)cyclohexyl (2-aminoethyl)carbamate]
≤ 250 nM | CN(C)c1ccc([C@H]2CC[C@H](CN(c3cccc(-c4coc(C5CC5)n4)c3)C(=O)[C@H]3CC[C@H](C(=O)O)CC3)CC2)cn1 [Compound 18.04, trans-4-((3-(2-Cyclopropyloxazol-4-yl)phenyl)((trans-4-(6-(dimethylamino)pyridine-3-yl)cyclohexyl)methyl)carbamoyl) cyclohexanecarboxylic acid]
≤ 250 nM | COc1ccc([C@H]2CC[C@H](CN(c3cccc(-c4cnn(C5CC5)c4)c3)C(=O)[C@H]3CC[C@H](OC(=O)N4CC(O)C4)CC3)CC2)nc1C [Compound 4.26, trans-4-((3-(1-Cyclopropyl-1H-pyrazol-4-yl)phenyl)((trans-4-(5-methoxy-6-methylpyridin-2-yl)cyclohexyl)methyl)carbamoyl)cyclohexyl 3-hydroxyazetidine-1-carboxylate]
